Where two headings read alike, the source gives them in different places.

This is an account of results in paper PMC4963206 (ChemMedChem, 2016).

The subject of one assay is AR230 cells. Nature of the assay: Phenotypic screening / cytotoxicity in CML cell line AR230. In kind it is cell-based. The following applies: read-out: IC50 AR230.
A further assay relates to AR230^R cells. As to the kind of experiment: Phenotypic screening / cytotoxicity in TKI-resistant CML cell line AR230^R. The assay is classed as cell-based. The following applies: for IC50: read-out: IC50 AR230^R; for Fold Difference: Table 3, AR230 vs AR230^R.

As to `CC(C)(C)c1ccc(CN(C(=O)CN(C2CC2)S(=O)(=O)c2ccc(F)cc2)c2ccc(C(=O)O)cc2)cc1` [AES1-094, 4-(N-(4-(tert-butyl)benzyl)-2-((N-cyclopropyl-4-fluorophenyl)sulfonamido)acetamido)benzoic acid], the IC50 is more than 32 µM in the assay on AR230 cells (Table 4) and 10.6 µM with AR230^R cells (Table 4).
The corresponding values for `O=C(O)c1ccc(N(Cc2ccc(C3CCCC3)cc2)C(=O)CN(C2CC2)S(=O)(=O)c2c(F)c(F)cc(F)c2F)cc1` [AM1-020, 4-(N-(4-Cyclopentylbenzyl)-2-((N-cyclopropyl-2,3,5,6-tetrafluorophenyl)sulfonamido)acetamido)benzoic acid] are more than 32 µM and 13.1 µM.
As for `Cc1c(F)c(F)c(S(=O)(=O)N(CC(=O)N(Cc2ccc(C3CCCC3)cc2)c2ccc(C(=O)O)cc2)C2CC2)c(F)c1F` [AM1-030, 4-(N-(4-Cyclopentylbenzyl)-2-((N-cyclopropyl-2,3,5,6-tetrafluoro-4-methylphenyl)sulfonamido)acetamido)benzoic acid], the IC50 was more than 32 µM in the assay on AR230 cells (Table 4) and 18.6 µM with AR230^R cells (Table 4).
`O=C(O)c1ccc(N(Cc2ccc(C3CCCC3)cc2)C(=O)CN(C2CC2)S(=O)(=O)c2c(F)c(F)c(C(F)(F)F)c(F)c2F)cc1` [AM1-066, 4-(N-(4-Cyclopentylbenzyl)-2-((N-cyclopropyl-2,3,5,6-tetrafluoro-4-(trifluoromethyl)phenyl)sulfonamido)acetamido)benzoic acid]: the figures for the IC50 in the assay on AR230 cells (Table 4) and with AR230^R cells (Table 4) were 20.4 µM and 21.6 µM, respectively.
On the same counts, the results for `O=C(O)c1ccc(N(Cc2ccc(C3CCCC3)cc2)C(=O)CN(C2CC2)S(=O)(=O)c2c(F)c(F)c(Br)c(F)c2F)cc1` [AM1-077, 4-(N-(4-Cyclopentylbenzyl)-2-((N-cyclopropyl-2,3,5,6-tetrafluoro-4-bromophenyl)sulfonamido)acetamido)benzoic acid] are 25.1 µM and 20.3 µM.
The corresponding values for `O=C(O)c1ccc(N(Cc2ccc(C3CCCC3)cc2)C(=O)CN(C2CC2)S(=O)(=O)c2c(F)c(F)c(Cl)c(F)c2F)cc1` [AM1-112, 4-(N-(4-Cyclopentylbenzyl)-2-((N-cyclopropyl-2,3,5,6-tetrafluoro-4-chlorophenyl)sulfonamido)acetamido)benzoic acid] are more than 32 µM and 30.7 µM.
Regarding `O=C(O)c1ccc(N(Cc2ccc(C3CCCC3)cc2)C(=O)CN(C2CC2)S(=O)(=O)c2ccc(F)nc2)cc1` [AM1-116, 4-(N-(4-Cyclopentylbenzyl)-2-((N-cyclopropyl-6-fluoropyridine)-3-sulfonamido)acetamido)benzoic acid], the IC50 with AR230 cells (Table 4) and in the assay with AR230^R cells (Table 4) was more than 32 µM each time.
Regarding `O=C(O)c1ccc(N(Cc2ccc(C3CCCC3)cc2)C(=O)CN(C2CC2)S(=O)(=O)c2ccc(F)cn2)cc1` [AM1-117, 4-(N-(4-Cyclopentylbenzyl)-2-((N-cyclopropyl-5-fluoropyridine)-2-sulfonamido)acetamido)benzoic acid], the IC50 with AR230 cells (Table 4) and in the assay on AR230^R cells (Table 4) was more than 32 µM each time.
For `O=C(O)c1ccc(N(Cc2ccc(C3CCCCC3)cc2)C(=O)CN(C2CC2)S(=O)(=O)c2c(F)c(F)c(F)c(F)c2F)cc1` [DR-3-036], the IC50 was 4.3 µM with AR230 cells (Table 2) and 2.6 µM with AR230^R cells (Table 2).
In the case of `O=C(O)c1ccc(N(Cc2ccc(C3CCCC3)cc2)C(=O)CN(C2CC2)S(=O)(=O)c2c(F)c(F)c(F)c(F)c2F)cc1` [DR-3-093, 4-(N-(4-Cyclopentylbenzyl)-2-((N-cyclopropyl-2,3,4,5,6-pentafluorophenyl)sulfonamido)acetamido)benzoic acid], the results for the concentration for half-maximal inhibition (IC50) in the assay on AR230 cells (Table 3) and in the assay with AR230^R cells (Table 3) were 3.3 µM and 1.2 µM, respectively. The “Fold Difference” value with AR230^R cells amounted to 2.75.
Regarding `O=C(O)c1ccc(N(Cc2ccc(C3CCCC3)cc2)C(=O)CNS(=O)(=O)c2c(F)c(F)c(F)c(F)c2F)cc1` [DR-3-111, 4-(N-(4-Cyclopentylbenzyl)-2-((perfluorophenyl)sulfonamido)acetamido)benzoic acid], the IC50 with AR230 cells is 11.4 µM; in the assay on AR230^R cells, 15.6 µM. The “fold reduction in activity vs SH-4-54” value with AR230^R cells (AR230^R cells) is reported as approximately 5 fold.
Turning to `CC1(C)CCC(c2ccc(CN(C(=O)CN(C3CC3)S(=O)(=O)c3c(F)c(F)c(F)c(F)c3F)c3ccc(C(=O)O)cc3)cc2)CC1` [DR-3-119, 4-(2-((N-Cyclopropyl-2,3,4,5,6-pentafluorophenyl)sulfonamido)-N-(4-(4,4-dimethylcyclohexyl)benzyl)acetamido)benzoic acid], the IC50 in the assay on AR230 cells (Table 3) turned out to be 5.8 µM; in the assay with AR230^R cells (Table 3), 3.2 µM. Besides, the “Fold Difference” value in the assay on AR230^R cells is on record as 1.81.
Take `CC(C)(C)c1ccc(CN(C(=O)CN(C2CC2)S(=O)(=O)c2c(F)c(F)c(F)c(F)c2F)c2ccc(C(=O)O)cc2)cc1` [DR-3-162, 4-(N-(4-(tert-butyl)benzyl)-2-((N-cyclopropyl-2,3,4,5,6-pentafluorophenyl)sulfonamido)acetamido)benzoic acid]: the IC50 with AR230 cells (Table 3) came to 3.2 µM. For the same molecule, in the assay with AR230^R cells, the “fold selectivity for AR230^R over AR230 cells” value amounted to 4 fold and the “Fold Difference” value is 4. Besides, the fold more potent in the assay with AR230^R cells (AR230^R cells) is listed as 3 fold. Besides, in the assay with AR230^R cells (Table 3), the IC50 is 0.8 µM.
As to `O=C(O)c1ccc(N(Cc2ccc(C3CCCCCC3)cc2)C(=O)CN(C2CC2)S(=O)(=O)c2c(F)c(F)c(F)c(F)c2F)cc1` [DR-3-165, 4-(N-(4-Cycloheptylbenzyl)-2-((N-cyclopropyl-2,3,4,5,6-pentafluorophenyl)sulfonamido)acetamido)benzoic acid], the IC50 was determined as 2.7 µM with AR230 cells (Table 3) and 1.1 µM in the assay with AR230^R cells (Table 3). Moreover, the “Fold Difference” value with AR230^R cells was found to be 2.45.
Take `O=C(O)c1ccc(N(Cc2ccc(C(F)(F)F)cc2)C(=O)CN(C2CC2)S(=O)(=O)c2c(F)c(F)c(F)c(F)c2F)cc1` [DR-3-186, 4-(2-(N-cyclopropyl-2,3,4,5,6-pentafluorophenylsulfonamido)-N-(4-(trifluoromethyl)benzyl)acetamido)benzoic acid]: in the assay with AR230 cells, the IC50 stood at 1.4 µM. Besides, in the assay on AR230^R cells, the “fold selectivity for AR230^R over AR230 cells” value was less than 2 fold, the “Fold Difference” value was 1.94 and the IC50 came to 0.72 µM.
In the case of `O=C(O)c1ccc(N(Cc2ccc(Cl)cc2)C(=O)CN(C2CC2)S(=O)(=O)c2c(F)c(F)c(F)c(F)c2F)cc1` [DR-4-003, 4-(N-(4-Chlorobenzyl)-2-((N-cyclopropyl-2,3,4,5,6-pentafluorophenyl)sulfonamido)acetamido)benzoic acid], the IC50 with AR230 cells (Table 3) stood at 4.1 µM; in the assay on AR230^R cells (Table 3), 1.7 µM. Further, the “Fold Difference” value with AR230^R cells was found to be 2.41.
On to `O=C(O)c1ccc(N(Cc2ccc(C3CCC3)cc2)C(=O)CN(C2CC2)S(=O)(=O)c2c(F)c(F)c(F)c(F)c2F)cc1` [DR-4-020, 4-(N-(4-Cyclobutylbenzyl)-2-((N-cyclopropyl-2,3,4,5,6-pentafluorophenyl)sulfonamido)acetamido)benzoic acid], for which the IC50 came to 8.6 µM in the assay on AR230 cells (Table 3) and 4.2 µM in the assay with AR230^R cells (Table 3). In addition, in the assay on AR230^R cells, the “Fold Difference” value is 2.05.
With `O=C(O)c1ccc(N(Cc2ccc(C3CCOCC3)cc2)C(=O)CN(C2CC2)S(=O)(=O)c2c(F)c(F)c(F)c(F)c2F)cc1` [DR-4-042], the values for the IC50 in the assay with AR230 cells (Table 3) and with AR230^R cells (Table 3) were 4.7 µM and 4.2 µM, respectively. Also, in the assay on AR230^R cells, the “Fold Difference” value is 1.12.
Consider `CC(C)N(CC(=O)N(Cc1ccc(C2CCCCC2)cc1)c1ccc(C(=O)O)cc1)S(=O)(=O)c1c(F)c(F)c(F)c(F)c1F` [PSL-3-40, 4-(N-(4-cyclohexylbenzyl)-2-(2,3,4,5,6-pentafluoro-N-isopropylphenylsulfonamido)acetamido)benzoic acid], for which the IC50 in the assay on AR230 cells is 8.7 µM; with AR230^R cells it was 14.2 µM.
With `O=C(O)c1ccc(N(Cc2ccc(N3CCOCC3)cc2)C(=O)CN(C2CC2)S(=O)(=O)c2c(F)c(F)c(F)c(F)c2F)cc1` [PSL-3-089], the IC50 in the assay with AR230 cells (Table 3) amounted to 7.4 µM; with AR230^R cells (Table 3), 5.2 µM. The “Fold Difference” value in the assay with AR230^R cells stood at 1.42.
The corresponding values for `O=C(O)c1ccc(N(Cc2ccccc2)C(=O)CN(C2CC2)S(=O)(=O)c2c(F)c(F)c(F)c(F)c2F)cc1` [PSL-3-115] are 5.2 µM, 2.3 µM and 2.26.
As for `O=C(O)c1ccc(N(Cc2ccc(F)cc2)C(=O)CN(C2CC2)S(=O)(=O)c2c(F)c(F)c(F)c(F)c2F)cc1` [PSL-3-122], the IC50 in the assay on AR230 cells (Table 3) stood at 6.1 µM; in the assay with AR230^R cells (Table 3), 3 µM. For the same molecule, the “Fold Difference” value in the assay on AR230^R cells turned out to be 2.03.
On to `O=C(O)c1ccc(N(Cc2ccc(C3CC3)cc2)C(=O)CN(C2CC2)S(=O)(=O)c2c(F)c(F)c(F)c(F)c2F)cc1` [PSL-3-132], for which the figures for the IC50 in the assay with AR230 cells (Table 3) and with AR230^R cells (Table 3) were 4.2 µM and 2.4 µM, respectively. In addition, the “Fold Difference” value in the assay with AR230^R cells is on record as 1.75.
`O=C(O)c1ccc(N(Cc2ccc(C3CCCC3)cc2)C(=O)CN(C2CC2)S(=O)(=O)c2cccnc2)cc1` [RG1-066, 4-(N-(4-Cyclopentylbenzyl)-2-(N-cyclopropylpyridine-3-sulfonamido)acetamido)benzoic acid]: the IC50 in the assay with AR230 cells and in the assay with AR230^R cells was more than 32 µM in each case.
Turning to `O=C(O)c1ccc(N(Cc2ccc(C3CCCC3)cc2)C(=O)CN(C2CC2)S(=O)(=O)c2ccccn2)cc1` [RG1-085, 4-(N-(4-Cyclopentylbenzyl)-2-(N-cyclopropylpyridine-2-sulfonamido)acetamido)benzoic acid], the IC50 in the assay on AR230 cells and with AR230^R cells was more than 32 µM throughout.
